Earlier results as cited in patent US12370168B2 (scPharmaceuticals Inc., priority 2013, dated 2025).

Conditions: as described in the '361 patent; cited from earlier work

## NC(CO)(CO)CO.NS(=O)(=O)c1cc(C(=O)O)c(NCc2ccco2)cc1Cl [tris(hydroxymethyl)aminomethane salt of furosemide]
  pH: 6-6.5
